Results as given in ChEMBL document CHEMBL4699591, “An efficient synthesis tetrazole and oxadiazole analogues of novel 2'-deoxy-C-nucleosides and their antitumor activity” (2020).

Key:
Type in all cases: functional
[1] = test system: MDA-MB-231; assay: Cytotoxicity against human MDA-MB-231 cells assessed as inhibition of cell growth at 10 uM incubated for 72 hrs by MTT assay relative to control
[2] = test system: PC-3; assay: Cytotoxicity against human PC-3 cells assessed as inhibition of cell growth at 2 uM incubated for 72 hrs by MTT assay relative to control
[3] = test system: SK-OV-3; assay: Cytotoxicity against human SK-OV-3 cells assessed as inhibition of cell growth at 2 uM incubated for 72 hrs by MTT assay relative to control
[4] = test system: PANC-1; assay: Cytotoxicity against human PANC-1 cells assessed as inhibition of cell growth at 2 uM incubated for 72 hrs by MTT assay relative to control
[5] = test system: MDA-MB-231; assay: Cytotoxicity against human MDA-MB-231 cells assessed as inhibition of cell growth at 2 uM incubated for 72 hrs by MTT assay relative to control
[6] = test system: HeLa; assay: Cytotoxicity against human HeLa cells assessed as inhibition of cell growth at 2 uM incubated for 72 hrs by MTT assay relative to control

Row | SMILES | inhibition at 10 µM [1] [%] | inhibition at 2 µM [2] [%] | inhibition at 2 µM [3] [%] | inhibition at 2 µM [4] [%] | inhibition at 2 µM [5] [%] | inhibition at 2 µM [6] [%]
1 | CC(C)c1nc([C@H]2C[C@H](O)[C@@H](CO)O2)no1 | 9 | – | – | – | – | –
2 | Cc1nnc([C@@H]2C[C@H](O)[C@@H](CO)O2)o1 | 9 | – | – | – | – | –
3 | COc1cccc2c1C(=O)c1c(O)c3c(c(O)c1C2=O)C[C@@](O)(C(=O)CO)C[C@@H]3O[C@H]1C[C@H](N)[C@H](O)[C@H](C)O1 [DOXORUBICIN] | – | > 90 | > 90 | > 90 | > 90 | > 90
